Laboratory results reported in a compilation of properties of binary mixtures (doi:10.1021/acs.jced.3c00247).

Test: xn = mol fraction of the nth substance listed
Settings: 100 kPa

O + C[C@H](N)C(=O)[O-].C[N+](C)(C)CCO
x2 = 0
Settings | viscosity [mPa·s]
288.09 K | 1.08
289.33 K | 1.05
290.56 K | 1.02
291.75 K | 0.98
292.93 K | 0.96
294.1 K | 0.93
295.28 K | 0.9
297.64 K | 0.86
298.81 K | 0.84
301.17 K | 0.8
302.34 K | 0.78
303.52 K | 0.77
304.69 K | 0.75
305.87 K | 0.74
308.22 K | 0.71

C[C@H](N)C(=O)[O-].C[N+](C)(C)CCO + O
Settings | viscosity [mPa·s]
287.92 K, x1 = 0.097 | 10.7
287.94 K, x1 = 0.198 | 60
288 K, x1 = 0.3748 | 345
288 K, x1 = 0.4948 | 710
288.02 K, x1 = 0.5975 | 1059
288.02 K, x1 = 0.8993 | 3070
288.06 K, x1 = 0.7994 | 2139
288.08 K, x1 = 0.692 | 1634
289.2 K, x1 = 0.198 | 57
289.22 K, x1 = 0.097 | 10.2
289.22 K, x1 = 0.3748 | 328
289.23 K, x1 = 0.2939 | 166
289.24 K, x1 = 0.4948 | 660
289.26 K, x1 = 0.8993 | 2817
289.29 K, x1 = 0.7994 | 1961
290.21 K, x1 = 1 | 4300
290.48 K, x1 = 0.198 | 53
290.48 K, x1 = 0.3748 | 300
290.5 K, x1 = 0.097 | 9.6
290.5 K, x1 = 0.4948 | 600
290.5 K, x1 = 0.5975 | 880
290.52 K, x1 = 0.8993 | 2510
290.54 K, x1 = 0.692 | 1293
291.71 K, x1 = 0.2939 | 140
291.71 K, x1 = 0.3748 | 274
291.72 K, x1 = 0.097 | 9.2
291.72 K, x1 = 0.198 | 50
291.72 K, x1 = 0.4948 | 540
291.72 K, x1 = 0.5975 | 790
291.73 K, x1 = 0.7994 | 1562
291.73 K, x1 = 0.8993 | 2231
291.74 K, x1 = 0.692 | 1150
292.02 K, x1 = 1 | 3052
292.32 K, x1 = 1 | 3520
292.91 K, x1 = 0.198 | 46
292.91 K, x1 = 0.2939 | 129
292.91 K, x1 = 0.3748 | 250
292.92 K, x1 = 0.7994 | 1393
292.92 K, x1 = 0.8993 | 1984
294.08 K, x1 = 1 | 2544
294.1 K, x1 = 0.198 | 43
294.1 K, x1 = 0.2939 | 119
294.1 K, x1 = 0.3748 | 230
294.1 K, x1 = 0.5975 | 650
294.1 K, x1 = 0.8993 | 1775
294.41 K, x1 = 1 | 2896
295.27 K, x1 = 0.097 | 8
295.27 K, x1 = 0.198 | 40.8
295.27 K, x1 = 0.2939 | 111
295.27 K, x1 = 0.3748 | 212
295.27 K, x1 = 0.4948 | 410
295.27 K, x1 = 0.5975 | 590
295.27 K, x1 = 0.692 | 840
295.27 K, x1 = 0.8993 | 1599
296.14 K, x1 = 1 | 2140
296.45 K, x1 = 0.097 | 7.7
296.45 K, x1 = 0.198 | 38.3
296.45 K, x1 = 0.2939 | 103
296.45 K, x1 = 0.3748 | 195
296.45 K, x1 = 0.5975 | 540
296.45 K, x1 = 0.692 | 760
296.45 K, x1 = 0.8993 | 1438
296.48 K, x1 = 1 | 2402
297.63 K, x1 = 0.198 | 36.2
297.63 K, x1 = 0.2939 | 96
297.63 K, x1 = 0.3748 | 181
297.63 K, x1 = 0.4948 | 347
297.63 K, x1 = 0.5975 | 490
297.63 K, x1 = 0.692 | 700
297.63 K, x1 = 0.7994 | 920
297.63 K, x1 = 0.8993 | 1302
298.2 K, x1 = 1 | 1806
298.54 K, x1 = 1 | 2000
298.8 K, x1 = 0.5975 | 450
298.8 K, x1 = 0.8993 | 1183
298.81 K, x1 = 0.097 | 7.1
298.81 K, x1 = 0.198 | 34.3
298.81 K, x1 = 0.3748 | 168
298.81 K, x1 = 0.4948 | 320
298.81 K, x1 = 0.692 | 630
299.98 K, x1 = 0.198 | 32.3
299.98 K, x1 = 0.2939 | 84
299.98 K, x1 = 0.4948 | 294
299.98 K, x1 = 0.5975 | 410
299.98 K, x1 = 0.692 | 580
299.98 K, x1 = 0.7994 | 760
299.98 K, x1 = 0.8993 | 1071
300.61 K, x1 = 1 | 1681
301.16 K, x1 = 0.097 | 6.6
301.16 K, x1 = 0.198 | 30.6
301.16 K, x1 = 0.2939 | 79
301.16 K, x1 = 0.3748 | 145
301.16 K, x1 = 0.4948 | 271
301.16 K, x1 = 0.5975 | 379
301.16 K, x1 = 0.7994 | 690
301.16 K, x1 = 0.8993 | 970
302.33 K, x1 = 0.198 | 29
302.33 K, x1 = 0.2939 | 74
302.33 K, x1 = 0.4948 | 251
302.33 K, x1 = 0.5975 | 348
302.33 K, x1 = 0.692 | 480
302.33 K, x1 = 0.7994 | 630
302.33 K, x1 = 0.8993 | 890
302.34 K, x1 = 0.097 | 6.4
302.34 K, x1 = 1 | 1310
302.66 K, x1 = 1 | 1421
303.51 K, x1 = 0.097 | 6.2
303.51 K, x1 = 0.198 | 27.6
303.51 K, x1 = 0.2939 | 69
303.51 K, x1 = 0.4948 | 233
303.51 K, x1 = 0.5975 | 322
303.51 K, x1 = 0.692 | 440
303.51 K, x1 = 0.8993 | 810
304.41 K, x1 = 1 | 1119
304.69 K, x1 = 0.097 | 6
304.69 K, x1 = 0.198 | 26.2
304.69 K, x1 = 0.2939 | 65
304.69 K, x1 = 0.3748 | 117
304.69 K, x1 = 0.4948 | 216
304.69 K, x1 = 0.5975 | 297
304.69 K, x1 = 0.692 | 410
304.69 K, x1 = 0.7994 | 530
304.69 K, x1 = 0.8993 | 740
305.86 K, x1 = 0.198 | 24.9
305.86 K, x1 = 0.2939 | 61
305.86 K, x1 = 0.5975 | 274
305.86 K, x1 = 0.692 | 375
305.86 K, x1 = 0.7994 | 480
305.87 K, x1 = 0.097 | 5.7
306.48 K, x1 = 1 | 960
306.78 K, x1 = 1 | 1030
307.04 K, x1 = 0.097 | 5.6
307.04 K, x1 = 0.198 | 23.7
307.04 K, x1 = 0.2939 | 58
307.04 K, x1 = 0.4948 | 186
307.04 K, x1 = 0.692 | 347
307.04 K, x1 = 0.7994 | 440
308.21 K, x1 = 0.4948 | 173
308.21 K, x1 = 0.5975 | 236
308.21 K, x1 = 0.692 | 321
308.22 K, x1 = 0.097 | 5.4
308.22 K, x1 = 0.198 | 22.6
308.22 K, x1 = 0.2939 | 54
308.22 K, x1 = 0.3748 | 96
308.22 K, x1 = 0.7994 | 410
308.22 K, x1 = 0.8993 | 570
308.54 K, x1 = 1 | 830
308.84 K, x1 = 1 | 880
310.61 K, x1 = 1 | 720
310.9 K, x1 = 1 | 760
312.67 K, x1 = 1 | 630
312.95 K, x1 = 1 | 660
314.74 K, x1 = 1 | 550
315.01 K, x1 = 1 | 570
316.82 K, x1 = 1 | 480
317.07 K, x1 = 1 | 500
318.91 K, x1 = 1 | 420
319.13 K, x1 = 1 | 440
321.04 K, x1 = 1 | 374
321.19 K, x1 = 1 | 387
323.25 K, x1 = 1 | 342
